From publication PMC11988454, “Discovery of synthetic small molecules targeting the central regulator of Salmonella pathogenicity” (Science Advances, 2025)

Columns and labels:
HilD = target: T1, HilD (Salmonella typhimurium, UniProt P0CL08); assay: EMSA, binding to hilA promoter, HilD; format: biochemical, S. Typhimurium
T1 construct: His6-SUMO (N, cleaved yes); made in house; host or cells: E. coli C41(DE3)
Method: EMSAs were performed similarly to as described previously ([39]) using a 62–base pair double-stranded (dsDNA) fragment of the hilA promoter, encompassing the A1 binding site ([82]). dsDNA fragments were generated by melting the complementary primers PhilA_A1_f / PhilA_A1_r (table S10) together in TE buffer [10 mM Tris (pH 8.0) and 1 mM EDTA] at 95°C for 10 min before slowly cooling to r.t. The forward primer was modified with a 5′-Cy5 fluorescent dye for detection. The protein (600 nM) was incubated with 50 nM labeled DNA in EMSA buffer [20 mM Tris (pH 8.0), 100 mM KCl, 100 μM EDTA, and 3% glycerol]. C26 was diluted first in DMSO and subsequently 1:100 into the protein-DNA sample. Samples were incubated at 37°C for 15 min, supplemented with diluted DNA loading dye, and separated on a 1.5-mm-thick, 6% (w/v) TBE polyacrylamide gel at 6°C at a constant voltage of 100 V. Gels were imaged using a ChemiDocMP imaging system (Bio-Rad).

macrophages RAW 264.7 = assay: In vitro toxicity, CellTox Green Cytotoxicity Assay, macrophages; format: cell-based; settings: RAW 264.7, 6 hours exposure
Method: The screening of in vitro toxicity of the compound analogs was performed with the CellTox Green Cytotoxicity Assay (Promega, USA) according to the manufacturer’s instructions. Cells (10^4 cells per well) were seeded into a 96-well plate and incubated for 24 hours at 37°C, 5% (v/v) CO2. Cells were then treated with the compound at different concentrations or 1% (v/v) DMSO in Dulbecco’s modified Eagle’s medium (DMEM) without phenol red at the desired exposure time. Fluorescence intensity was measured with a TECAN Spark microplate reader. […] page 4: […] 0 10000 20000 30000 40000 50000 Compound concentration (µM) Cytotoxicity (RFU) Fig. S3. […] Cytotoxicity Assay. Fluorescence was measured as a readout for cytotoxicity at 485Ex/520Em. N = 3 biological replicates. (1 picture or pasted object on this page, not shown here)

HeLa cells = assay: Cytotoxicity, CellTox Green Cytotoxicity Assay, HeLa; format: cell-based; settings: exposure time 18 h
Method: In vitro toxicity of compound C26 was assessed in HeLa cells (ATCC CCL-2) using the ApoTox-Glo Triplex Assay and in macrophages RAW 264.7-LgBiT using the CellTox Green Cytotoxicity Assay (Promega, USA) according to the manufacturer’s instructions. The screening of in vitro toxicity of the compound analogs was performed with the CellTox Green Cytotoxicity Assay (Promega, USA) according to the manufacturer’s instructions. Cells (10^4 cells per well) were seeded into a 96-well plate and incubated for 24 hours at 37°C, 5% (v/v) CO2. Cells were then treated with the compound at different concentrations or 1% (v/v) DMSO in Dulbecco’s modified Eagle’s medium (DMEM) without phenol red at the desired exposure time. Fluorescence intensity was measured with a TECAN Spark microplate reader. Cytotoxicity [relative fluorescence units (RFU)] and viability (RFU) values were plotted to calculate the TC50 using GraphPad Prism 10.1.1.
Compound concentration (µM) […]
in vitro cytotoxicity of C26 and analogs. Cytotoxicity assessed with CellTox™ Green Cytotoxicity Assay with an exposure time of 18 h. N = 3 biological replicates. Data were plotted and TC50 values were generated with GraphPad Prism 10.1.1.
(1 picture or pasted object on this page, not shown here)

[1] = tested on: S. enterica clinical isolates (SipA secretion through T3SS-1); assay: Plasmid-based SipA secretion assay in clinical isolates; format: cell-based; settings: C26 100 μM, 75 strains
Method: The plasmid pT10-SipA-NLuc was electroporated into electrocompetent cells of S. enterica clinical isolates. Bacteria at an initial OD600 of 0.02 were grown for 5 hours in 1 ml of LB supplemented with 0.3 M NaCl, kanamycin (50 μg/ml), and either compound at 100 μM or 1% (v/v) DMSO. Cultures were pelleted, and then 25 μl of the supernatant was transferred to a 384-well plate to measure luminescence as previously described.

[2] = tested on: T3SS-2 (SseF-HiBiT secretion); assay: SseF-HiBiT injection assay in LgBiT-expressing RAW 264.7 macrophages; format: cell-based, S. Typhimurium; settings: C26 100 μM, inside RAW 264.7 macrophages, 7 hours after infection, MOI 10
Method: SseF injection assay was performed using the split-Nanoluc (HiBiT/LgBiT) system as described for SipA. In a white 96-well plate (NUNC) with optical bottom, 10^4 LgBiT-expressing RAW 264.7 macrophages ([65]) were seeded in 100 μl of DMEM, 24 hours before the infection. The strain harboring the plasmid-encoded sseF-HiBiT and the isogenic strain ΔssaV were grown in LB-NaCl at 37°C at 180 rpm until an OD600 of 0.9. Bacteria were washed twice with HBSS (Serva) and then used to infect preseeded cells on a 96-well plate with an MOI of 10. The plate was centrifuged at 300g for 3 min and then incubated for 30 min to allow invasion. Afterward, macrophages were washed with DMEM and incubated for 1 hour in DMEM supplemented with gentamicin (100 μg/ml) to eliminate noninvading bacteria. The medium was replaced by DMEM with gentamicin (16 μg/ml), supplemented with either DMSO (1%) or C26 at different concentrations. Cells were incubated at 37°C with 5% (v/v) CO2 for 5.5 hours (total infection time of 7 hours) and then washed twice with 1x PBS before luminescence measurements were carried out following the manufacturer’s instructions.

HilD-HilE heterodimer = HilD-HilE heterodimer (Salmonella typhimurium, UniProt P0CL08); assay: MST dimerization assay HilD-HilE; format: binding, S. Typhimurium; settings: 100 μM compound
Method: MST measurements for the binding of HilD to HilE were performed as previously described ([39]). In summary, enhanced yellow fluorescent protein (EYFP)-HilD (100 nM) was incubated with 100 μM either oleic acid or C26 [with a final concentration of 1% (v/v) DMSO] for 10 min at r.t. (22° to 25°C) and subsequently mixed 1:1 with varying concentrations of HilE. Samples were incubated together for 10 min at r.t., centrifuged for 5 min, and loaded to standard capillaries (NanoTemper Technologies GmbH, no. MO-K022). MST runs were performed at 25°C on a NanoTemper Monolith NT.115, with an excitation power of 60% and medium MST power. Data were analyzed using the MO.Affinity Analysis v2.3 software, and affinity constants were calculated using the Kd model.

Chain of HilD-HilE heterodimer (P0CL08 whole entry, one chain of several): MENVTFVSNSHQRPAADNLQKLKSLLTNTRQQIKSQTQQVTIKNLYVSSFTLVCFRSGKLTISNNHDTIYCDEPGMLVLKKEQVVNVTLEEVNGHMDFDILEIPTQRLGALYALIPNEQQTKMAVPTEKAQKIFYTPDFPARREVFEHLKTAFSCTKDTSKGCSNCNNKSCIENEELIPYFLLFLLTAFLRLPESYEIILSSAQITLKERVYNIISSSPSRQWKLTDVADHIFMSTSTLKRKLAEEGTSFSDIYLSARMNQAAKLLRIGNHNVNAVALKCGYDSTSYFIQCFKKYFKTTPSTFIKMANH
T1 sequence (P0CL08 whole entry): as the sequence (P0CL08 whole entry, one chain of several) above

## CN(CC(=O)NCc1ccc2c(c1)OCO2)Cc1ccc(Br)s1 [C26, N-(benzo[d][1,3]dioxol-5-ylmethyl)-2-{[(5-bromothiophen-2-yl)methyl](methyl)amino}acetamide]
HilD
  DNA binding activity of HilD (hilA promoter): dose-dependent inhibition of the DNA binding activity
Macrophages RAW 264.7
  toxicity in macrophages: No toxicity was observed
HeLa cells
  TC50 cytotoxicity: > 100 µM
[1]
  sensitivity of clinical isolates (SipA secretion): all sensitive
[2]
  SseF-HiBiT secretion, % of the control: 37%
HilD-HilE heterodimer
  formation of HilD-HilE heterodimers: no effect on heterodimerization
